{"source": "paper PMC6445138", "about": "(2019)", "key": {"[1]": {"tested_on": "5′-AF647-TtPreQ1-RS (RNA, riboswitch) CUGGGUCGCAGUAACCCCAGUUAACAAAACAAG", "assay": "fluorescence intensity titration of labelled RNA", "settings": "100 mM KCl, 1 mM MgCl2; 50 mM Tris pH 7.5, 10% DMSO, room temperature, RNA 50 nM; apparent"}, "[2]": {"tested_on": "5′-Cy5-BsPreQ1-RS (RNA, riboswitch) AGAGGUUCUAGCUACACCCUCUAUAAAAAACUAA", "assay": "fluorescence intensity titration of labelled RNA", "settings": "100 mM KCl, 1 mM MgCl2; 50 mM Tris pH 7.5, 10% DMSO, room temperature, RNA 50 nM; apparent"}, "[3]": {"tested_on": "ab13_14_15 (RNA, riboswitch, abasic at 13, 14 and 15) CUGGGUCGCAGUNNNCCCAGUUAACAAAACAAG", "assay": "X-ray crystallography"}, "[4]": {"tested_on": "TtPreQ1-RS (unlabeled) (RNA, riboswitch) CUGGGUCGCAGUAACCCCAGUUAACAAAACAAG", "assay": "WaterLOGSY and CPMG NMR", "settings": "100 mM KCl, 1 mM MgCl2; 50 mM Tris-d11 pH 7.5, 5% DMSO-d6; non-binding control, tested at 375 µM"}, "[5]": {"tested_on": "SsPreQ1-RS (unlabeled) (RNA, riboswitch) AGAGGUUCCUAGCUGAUACCCUCUAUAAAAAACUA", "assay": "WaterLOGSY NMR", "settings": "100 mM KCl, 1 mM MgCl2"}, "[6]": {"tested_on": "BsPreQ1-RS (unlabeled) (RNA, riboswitch) AGAGGUUCUAGCUACACCCUCUAUAAAAAACUAA", "assay": "WaterLOGSY and CPMG NMR", "settings": "100 mM KCl, 1 mM MgCl2; 50 mM Tris-d11 pH 7.5, 5% DMSO-d6; non-binding control, tested at 375 µM"}, "[7]": {"tested_on": "ab13_14 (RNA, riboswitch, abasic at 13 and 14) CUGGGUCGCAGUNNCCCCAGUUAACAAAACAAG", "assay": "X-ray crystallography"}, "[8]": {"tested_on": "Ss PreQ1 TTA transcript (RNA, riboswitch) AUGUAGUAAGGAGGUUGUAUGGAAGACGAGAGGUUCCUAGCUGAUACCCUCUAUAAAAAACUAGACACAUGUACAACGUCUGUCUUUUUUAUAGAGAUAGGCGUUUUUUUAUGCGCUUAUCUAAACCCUGUACCAGUUAGUUCGACUAUUUUUAAGGAGU", "assay": "single-round in vitro transcription termination", "settings": "KCl, MgCl2; 20 mM Tris-HCl pH 8.0, 37 °C, E. coli RNA polymerase"}, "[9]": {"tested_on": "5′-AF647-BsPreQ1-RS (RNA, riboswitch) GGAGAGGUUCUAGCUACACCCUCUAUAAAAAACUAA", "assay": "in-line probing", "settings": "10 mM KCl, 2 mM MgCl2"}, "[10]": {"tested_on": "TtPreQ1-RS (unlabeled) (RNA, riboswitch) CUGGGUCGCAGUAACCCCAGUUAACAAAACAAG", "assay": "inherent ligand fluorescence titration", "settings": "100 mM KCl, 1 mM MgCl2; 50 mM Tris pH 7.5, 5% DMSO, room temperature, compound 500 nM"}, "[11]": {"tested_on": "BsPreQ1-RS (unlabeled) (RNA, riboswitch) AGAGGUUCUAGCUACACCCUCUAUAAAAAACUAA", "assay": "inherent ligand fluorescence titration", "settings": "100 mM KCl, 1 mM MgCl2; 50 mM Tris pH 7.5, 5% DMSO, room temperature, compound 500 nM"}}, "data": [{"smiles": "CN(C)CCOc1ccc2[nH]c3ccccc3c2c1", "values": [{"measurement": "KD", "setting": "[1]", "result": "0.1 ± 0.04", "unit": "µM"}, {"measurement": "KD", "setting": "[2]", "result": "0.1 ± 0.08", "unit": "µM"}, {"measurement": "binding", "setting": "[3]; 2.56 Å", "result": "yes"}]}, {"smiles": "CN[C@H](C(=O)O)C(C)C", "values": [{"measurement": "binding", "setting": "[4]", "result": "no"}, {"measurement": "binding", "setting": "[5]; 50 mM Tris-d11 pH 7.5, 5% DMSO-d6, non-binding control, tested at 375 µM", "result": "no"}, {"measurement": "binding", "setting": "[6]", "result": "no"}]}, {"smiles": "CN(C)CCOc1ccc2oc3ccccc3c2c1", "values": [{"measurement": "KD", "setting": "[1]", "result": "0.6 ± 0.2", "unit": "µM"}, {"measurement": "KD", "setting": "[2]", "result": "0.4 ± 0.1", "unit": "µM"}, {"measurement": "binding", "setting": "[7]; 1.94 Å", "result": "yes"}]}, {"smiles": "NCc1c[nH]c2nc(N)[nH]c(=O)c12", "values": [{"measurement": "EC50", "setting": "[8]", "result": "0.036 ± 0.005", "unit": "µM"}, {"measurement": "binding", "setting": "[9]; 50 mM Tris pH 8.3, room temperature, compound 10 µM", "result": "yes"}, {"measurement": "KD", "setting": "[1]", "result": "0.0028 ± 0.0004", "unit": "µM"}, {"measurement": "KD", "setting": "[2]", "result": "0.0041 ± 0.0006", "unit": "µM"}, {"measurement": "binding", "setting": "[7]; 1.69 Å", "result": "yes"}]}, {"smiles": "NCCOc1ccc2oc3ccccc3c2c1", "values": [{"measurement": "EC50", "setting": "[8]", "result": "359 ± 23", "unit": "µM"}, {"measurement": "KD", "setting": "[10]", "result": "0.099 ± 0.038", "unit": "µM"}, {"measurement": "binding", "setting": "[9]; 50 mM Tris pH 8.3, 5% DMSO, room temperature, compound 0.1-300 µM", "result": "yes"}, {"measurement": "KD", "setting": "[1]", "result": "0.457 ± 0.202", "unit": "µM"}, {"measurement": "KD", "setting": "[2]", "result": "0.534 ± 0.123", "unit": "µM"}, {"measurement": "binding", "setting": "[7]; 1.8 Å", "result": "yes"}, {"measurement": "KD", "setting": "[11]", "result": "0.49 ± 0.368", "unit": "µM"}, {"measurement": "binding", "setting": "[5]; 50 mM Tris-d11 pH 7.5, 5% DMSO-d6, compound 375 µM", "result": "yes"}, {"measurement": "binding", "setting": "[3]; 1.8 Å", "result": "yes"}]}]}
